Results published in US10959430B2, “Compositions and methods for repelling coleopterans” (ISCA TECHNOLOGIES, INC., priority 2015, dated 2021).

Tests used:
CBB = details: dosage and verbenone type not given in the study; cited from earlier work
[1] = test system: CBB (coffee berry borer, Hypothenemus hampei); assay: Dislodging of CBB from coffee berries in a sealed petri dish; assay type: in vivo; details: both male and female CBBs
Excerpt: Our testing involved application of approximately 0.2 g of SPLAT Verb in approximately a 6-inch petri dish. (SPLAT Verb is loaded with 10% verbenone by weight.) This area would correspond to 0.0000045ac of land; therefore, our field application rate would be approximately 44 kg of SPLAT Verb (4,400 g of verbenone) per acre. Coffee berries, commonly used to rear CBB, were placed in the petri dish. The 0.2 g of SPLAT Verb was introduced into the sealed petri dish. We then went on to measure the times when CBB dislodged or exited the berry. The number dislodged is a summation of the total dislodged at that point in time. Our data (as shown in Table 3) verifies that CBB exited their preferred host and, after dislodging, maintained high activity levels without re-entering the berries.

Row | Compound | response of CBB to path containing verbenone (CBB) | effect of exposure on male and female CBBs in the coffee berry [1]
1 | CC1=CC(=O)[C@@H]2C[C@H]1C2(C)C [verbenone] | unattractive | –
2 | CC1=CC(=O)[C@H]2C[C@@H]1C2(C)C [(1S)-(−)-Verbenone] | – | dislodge from the coffee berry
